In patent US20260265305A1, “POLYPEPTIDE DERIVATIVE FOR ORAL DELIVERY” (Hangzhou Sciwind Biosciences Co., Ltd., priority 2023, published 2026):
Numbered stars: 1 amine (or outer) side, 2 acyl side, 3 side chain; on linkers, the order of the positions; unused ones are H or OH. Bridge positions count the residues as written; N and C are the ends. Square brackets hold non-standard residues; d marks the D form. Ends that are not written are not given here. Peptide text beside a SMILES is read from it. * marks the point of attachment. C20 diacid = O=C(O)CCCCCCCCCCCCCCCCCCC(=O)*; C18 diacid = O=C(O)CCCCCCCCCCCCCCCCC(=O)*; βAsp = O=C(O)[C@H](CC(=O)[*:2])N[*:1]; Hyp = O=C(O)[C@@H]1C[C@@H](O)CN1; AEEA = NCCOCCOCC(=O)O

Assays:
[1] = Efficacy assay in SD rats, dose-dependent study, single subcutaneous dose; type: in vivo; settings: Table 9
Excerpt: […] Food intake was the amount of food consumed by each of the animals per day.

[2] = Heat accelerated stability assay of polypeptide solutions (40° C., pH about 7.4), reversed phase chromatography; type: physicochemical
Procedure, shortened: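 Polypeptide derivative lyophilisate (1 mg/mL) with sodium dihydrogen phosphate (1.42 mg/mL) in water, pH about 7.4, sterile-filtered, vialed and held at 40° C; sampled on days 7 and 26. After centrifugation, concentration and purity (target/total peak area) by C18 RP-HPLC, TFA/ACN gradient, 280 and 214 nm.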

[3] = dog, in vivo, 7 mg
Protocol: Whole blood of the animals was collected pre dose (−10 min) and 2 h, 4 h, and 8 h post dose on Day 1, pre dose (−10 min) and 2 h and 4 h post dose on Day 2-Day 4, and pre dose (−10 min) and 2 h, 4 h, 8 h, 24 h, 48 h, and 72 h post dose on Day 5, and processed into plasma using heparin sodium as an anticoagulant. […] Experimental data was plotted using GraphPad Prism9.3.1.

amylin receptor (hAMY3R) [4] = target: T1, amylin receptor (hAMY3R) (Homo sapiens, UniProt O60896+P30988); experiment: Amylin receptor agonism testing, CRE-luciferase assay in stably transfected CHO-K1/Ga15/AMY3 cells; type: cell-based; settings: incubation of 4 hours (N2 and N3 retested); Table 3 lower part; read-out: EC50, activity against the amylin receptor in cells
T1 construct: host or cells: CHO-K1/Ga15/AMY3 cells, further stably transfected with a CRE-luciferase plasmid
T1 sequence (P30988 25-474): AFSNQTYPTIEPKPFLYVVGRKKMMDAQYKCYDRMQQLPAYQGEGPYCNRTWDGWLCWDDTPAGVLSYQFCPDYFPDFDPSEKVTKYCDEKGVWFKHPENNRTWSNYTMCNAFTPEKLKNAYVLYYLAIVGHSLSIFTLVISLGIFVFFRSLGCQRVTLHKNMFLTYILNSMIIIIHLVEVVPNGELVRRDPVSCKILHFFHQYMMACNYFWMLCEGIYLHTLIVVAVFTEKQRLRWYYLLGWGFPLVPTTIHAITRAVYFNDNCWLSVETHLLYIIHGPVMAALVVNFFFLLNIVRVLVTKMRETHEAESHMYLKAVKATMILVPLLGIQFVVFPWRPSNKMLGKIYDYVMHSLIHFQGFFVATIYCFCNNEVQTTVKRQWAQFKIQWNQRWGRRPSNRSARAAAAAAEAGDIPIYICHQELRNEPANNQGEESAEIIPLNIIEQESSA
T1 sequence (O60896 24-148): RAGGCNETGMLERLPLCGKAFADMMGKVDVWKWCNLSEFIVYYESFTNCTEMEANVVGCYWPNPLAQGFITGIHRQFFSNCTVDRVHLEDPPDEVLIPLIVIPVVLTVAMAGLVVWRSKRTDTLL

amylin receptor (hAMY3R) [5] = target: T2, amylin receptor (hAMY3R) (human (printed as hAMY3R), UniProt P30988 25-474; O60896 24-148); experiment: cell-based or functional assay
T2 sequence (looked up) 1: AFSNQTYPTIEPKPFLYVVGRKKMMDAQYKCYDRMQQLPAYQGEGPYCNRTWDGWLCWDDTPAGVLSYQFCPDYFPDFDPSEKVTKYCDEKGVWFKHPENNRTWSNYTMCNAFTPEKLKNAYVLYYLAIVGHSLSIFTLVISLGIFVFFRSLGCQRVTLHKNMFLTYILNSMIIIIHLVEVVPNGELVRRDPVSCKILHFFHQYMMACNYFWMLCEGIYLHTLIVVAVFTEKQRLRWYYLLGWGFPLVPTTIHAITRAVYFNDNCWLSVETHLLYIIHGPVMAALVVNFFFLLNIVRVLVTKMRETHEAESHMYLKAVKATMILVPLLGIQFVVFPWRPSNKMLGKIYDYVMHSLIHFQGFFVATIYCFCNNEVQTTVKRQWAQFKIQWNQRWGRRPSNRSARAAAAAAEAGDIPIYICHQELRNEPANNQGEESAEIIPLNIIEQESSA
T2 sequence (looked up) 2: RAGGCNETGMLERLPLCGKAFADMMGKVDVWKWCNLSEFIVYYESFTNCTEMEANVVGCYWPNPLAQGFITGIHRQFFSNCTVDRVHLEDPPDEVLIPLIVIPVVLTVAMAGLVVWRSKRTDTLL

## CC[C@H](C)[C@H](NC(=O)[C@@H]1CCCN1C(=O)CNC(=O)[C@H](Cc1ccccc1)NC(=O)[C@H](CC(N)=O)NC(=O)[C@H](CC(N)=O)NC(=O)[C@H](CO)NC(=O)[C@H](CO)NC(=O)[C@H](Cc1c[nH]cn1)NC(=O)[C@H](CCCNC(=N)N)NC(=O)[C@H](CC(C)C)NC(=O)[C@H](Cc1ccccc1)NC(=O)[C@H](CCC(=O)O)NC(=O)[C@H](C)NC(=O)[C@H](CC(C)C)NC(=O)[C@H](CCCNC(=N)N)NC(=O)[C@H](CCC(N)=O)NC(=O)[C@@H](NC(=O)[C@H](C)NC(=O)[C@@H]1CSSC[C@H](NC(=O)[C@H](CCCCN)NC(=O)CC[C@H](NC(=O)CCCCCCCCCCCCCCCCCCC(=O)O)C(=O)O)C(=O)N[C@@H](CC(N)=O)C(=O)N[C@@H]([C@@H](C)O)C(=O)N[C@@H](C)C(=O)N[C@@H]([C@@H](C)O)C(=O)N1)[C@@H](C)O)C(=O)N[C@@H](CC(C)C)C(=O)N1CCC[C@H]1C(=O)N1CCC[C@H]1C(=O)N[C@H](C(=O)N[C@@H](CC(N)=O)C(=O)N[C@H](C(=O)NCC(=O)N[C@@H](CO)C(=O)N[C@@H](CC(N)=O)C(=O)N[C@H](C(=O)N1CCC[C@H]1C(N)=O)[C@@H](C)O)C(C)C)[C@@H](C)O [D1, Cagrilintide]
[1]; 30 nmol/kg single s.c. dose
  24 h food intake: 5.250 g
  24 h weight change: −6.416%
[1]; 100 nmol/kg single s.c. dose
  24 h food intake: 2.100 g
  24 h weight change: −9.103%
[2]; Day 7 of the accelerated testing
  purity decrease: 12.73%
[2]; Day 26 of the heat accelerated assay
  appearance (clarity) of the solution: foreign matters were readily observable
[2]; reversed phase chromatography 214 nm, 40° C., Day 7, purity on 7 d − purity on 0 d
  Purity change on 7 d: −12.73%

## CC[C@H](C)[C@H](NC(=O)[C@@H]1CCCN1C(=O)[C@H](CCCCN)NC(=O)[C@H](CC(C)C)NC(=O)[C@H](CC(N)=O)NC(=O)[C@H](CC(N)=O)NC(=O)[C@H](CO)NC(=O)[C@H](CO)NC(=O)[C@H](Cc1c[nH]cn1)NC(=O)[C@H](CCCNC(=N)N)NC(=O)[C@H](CC(C)C)NC(=O)[C@H](Cc1ccccc1)NC(=O)[C@H](CC(=O)O)NC(=O)[C@H](C)NC(=O)[C@H](CC(C)C)NC(=O)[C@H](CCCNC(=N)N)NC(=O)[C@H](CCC(N)=O)NC(=O)[C@@H](NC(=O)[C@H](C)NC(=O)[C@@H]1CSSC[C@H](NC(=O)[C@H](CCCCN)NC(=O)COCCOCCNC(=O)COCCOCCNC(=O)C[C@H](NC(=O)CCCCCCCCCCCCCCCCCCC(=O)O)C(=O)O)C(=O)N[C@@H](CC(N)=O)C(=O)N[C@@H]([C@@H](C)O)C(=O)N[C@@H](C)C(=O)N[C@@H]([C@@H](C)O)C(=O)N1)[C@@H](C)O)C(=O)N[C@@H](CC(C)C)C(=O)N1CCC[C@H]1C(=O)N1CCC[C@H]1C(=O)N[C@H](C(=O)N[C@@H](CC(N)=O)C(=O)N[C@H](C(=O)NCC(=O)N[C@@H](CO)C(=O)N[C@@H](CC(N)=O)C(=O)N[C@H](C(=O)N1C[C@H](O)C[C@H]1C(N)=O)[C@@H](C)O)C(C)C)[C@@H](C)O [N2] ({C20 diacid-βAsp-AEEA-AEEA}-KCNTATCATQRLADFLRHSSNNLKPILPPTNVGSNT[Hyp]-NH2; disulfide 2-7 (inferred))
[3]
  oral bioavailability: extraordinarily high oral bioavailability

## CC[C@H](C)[C@H](NC(=O)[C@@H]1CCCN1C(=O)[C@H](CCCCN)NC(=O)[C@H](CC(C)C)NC(=O)[C@H](CC(N)=O)NC(=O)[C@H](CC(N)=O)NC(=O)[C@H](CO)NC(=O)[C@H](CO)NC(=O)[C@H](Cc1c[nH]cn1)NC(=O)[C@H](CCCNC(=N)N)NC(=O)[C@H](CC(C)C)NC(=O)[C@H](Cc1ccccc1)NC(=O)[C@H](CC(=O)O)NC(=O)[C@H](C)NC(=O)[C@H](CC(C)C)NC(=O)[C@H](CCCNC(=N)N)NC(=O)[C@H](CCC(N)=O)NC(=O)[C@@H](NC(=O)[C@H](C)NC(=O)[C@@H]1CSSC[C@H](NC(=O)[C@H](CCCCN)NC(=O)COCCOCCNC(=O)COCCOCCNC(=O)C[C@H](NC(=O)CCCCCCCCCCCCCCCCC(=O)O)C(=O)O)C(=O)N[C@@H](CC(N)=O)C(=O)N[C@@H]([C@@H](C)O)C(=O)N[C@@H](C)C(=O)N[C@@H]([C@@H](C)O)C(=O)N1)[C@@H](C)O)C(=O)N[C@@H](CC(C)C)C(=O)N1CCC[C@H]1C(=O)N1CCC[C@H]1C(=O)N[C@H](C(=O)N[C@@H](CC(N)=O)C(=O)N[C@H](C(=O)NCC(=O)N[C@@H](CO)C(=O)N[C@@H](CC(N)=O)C(=O)N[C@H](C(=O)N1C[C@H](O)C[C@H]1C(N)=O)[C@@H](C)O)C(C)C)[C@@H](C)O [N3] ({C18 diacid-βAsp-AEEA-AEEA}-KCNTATCATQRLADFLRHSSNNLKPILPPTNVGSNT[Hyp]-NH2; disulfide 2-7)
[3]
  oral bioavailability: significantly improving the bioavailability
Amylin receptor (hAMY3R) [4]
  EC50: 0.001 nM

B1: M5 (peptide)
peptide: ASQLSTAVLGRLSQELHRLQDYPRTDVGSGSP-NH2
Amylin receptor (hAMY3R) [5]
  EC50, CRE-luciferase reporter in amylin receptor CHO cells, 24 h: 0.033 nM
